From patent publication US8940911B2, “Squarylated lactones inhibitors for bacterial biofilm formation” (Syracuse University, priority 2012, dated 2015) come the findings set out here.

The subject of assay [1] is E. coli RP437. Description: Static biofilm inhibition assay (crystal violet, 96-well plate). It is filed as cell-based, Escherichia coli. The source says: A primary objective was to test the ability of SHLs to inhibit biofilm formation against E. coli RP437. […] Viable controls were required that would allow us to measure and compare the activity of SHLs against known biofilm inhibitors and naturally occurring AI-1 signal molecules. […] The activity of this class of molecule is presumably similar or even marginally higher than that of brominated furanone (BF8 48) (56%).
For the present invention, the E. coli RP437 biofilms were allowed to develop in a 96-well plate in the absence or presence of SHLs. After 24 hours, the planktonic bacteria and remaining media were removed and the crystal violet was introduced in the wells. The bacterial biofilm being formed at the air/liquid interface on the inside wall of the well is stained readily by crystal violet. After removing the excess crystal violet and repeatedly washing the wells with water, followed by ethanol solubilization of the dye, allows quantification of the amount of biofilm by spectrophotometry (OD600). […] We believe that the observed biofilm inhibition activity cannot be directly attributed to any predominant structural feature inherent in the SHLs. Rather, the small deviations in the structures of the SHLs and their effect on biofilm formation could be a result of the nature of non-covalent forces that arise during SHLs presumed binding within the receptor active site.
An overnight culture of E. coli RP437 grown in LB media (OD600 of 1.0) containing streptomycin (10 μg/mL) was subsequently sub-cultured to an OD600 of 0.04 (1:100 dilution with LB media). To each well in the solvent resistant polypropylene or polystyrene-based 96-well microtiter plates were added 200 μL of the sub-cultured bacteria respectively. To each of the wells containing the bacterial cultures varying concentrations of the synthetic molecules was added and the contents in each well were gently mixed. Control wells comprised of untreated bacterial culture (four replicates) and the LB media (four replicates). The microtiter plates were then covered and wrapped in a Saran wrap and allowed to incubate at 37° C. for 24 hours without shaking. After that time, the microbial medium in each well was discarded and the remaining biofilm that was formed during incubation was stained with 225 μL of a 0.1% crystal violet solution and allowed to incubate at room temperature for 30 minutes. After the incubation period, the crystal violet was discarded and the wells were gently washed twice with water (230-250 μL) and allowed to air dry for 15-20 minutes. For the purpose of solubilizing the remaining crystal violet that had stained the biofilm present in the interior of the 96-well plates, a 250 μL solution of 95% ethanol was used. After the addition of 95% ethanol, the contents of each well were mixed thoroughly and allowed to sit for 15-20 minutes. Finally, the biofilm formed was quantified by transferring 100 μL of the ethanol solution into a fresh polystyrene microtiter dish that was subsequently read by an absorbance plate reader (A600). After elimination of background absorbance, the percentage inhibition was calculated by dividing the amount of absorbed crystal violet in wells that contained the synthetic compound by the amount of absorbed crystal violet in wells that contained bacteria only (control). Biofilm assays for each synthetic compound were repeated two to three times and each concentration considered for inhibition studies were tested over four replicates.

The subject of assay [2] is E. coli RP437. Briefly: Growth studies (OD600) of planktonic E. coli. It is filed as cell-based, Escherichia coli. Particulars: for toxicity / growth inhibition of E. coli (in words): OD600 over 24 h, 1-300 μM as stated in the sentence. As for the experimental part: The toxicity of the SHLs and BF8 at a range of concentrations (1, 10, 25, 50, 100, 200 and 300 μM) was evaluated against E. coli RP437 to determine whether these small molecules elicit their inhibition effect through a toxic mechanism. […] The effect induced by SHLs at 200 μM, the inhibitory concentration at which maximum biofilm inhibition occurs was interesting to observe.
The toxicity profile of BF8 48 would in turn allow a comparison to the library of SHLs. Parallel growth studies using BF8 48 and vinyl-SHL 3 treated and untreated control cultures in 96-well plates were performed. Inhibitor concentrations used during growth studies ranged from […]-300 μM.
An overnight culture of E. coli RP437 grown in LB media (OD600 of 1.0) containing streptomycin (10 μg/mL) was subsequently sub-cultured to an OD600 of 0.04 (1:100 dilution with LB media). To each well in the solvent resistant polypropylene or polystyrene-based 96-well microtiter plates were added varying concentrations of the synthetic molecules respectively (1, 10, 25, 50, 100, 200 and 300 μM). Further, to each of the wells containing the known concentrations of synthetic molecules was added 200 μL of the sub-cultured bacteria and the contents in each well were gently mixed. Control wells comprised of untreated bacterial culture (four replicates) and the LB media (four replicates). The microtiter plates were then covered and allowed to incubate at 37° C. for 24 hours with shaking at 200 rpm. The OD600 values in each well was measured at 0, 2, 4, 6, 8, 12, 24 h after inoculation using Biotek ELx800 absorbance plate reader using Gen5™ data analysis software. For each synthetic compound, the growth experiments were repeated twice and each of the concentrations was tested over four replicates.

The mark [3] stands for this setting: E. coli RP437, 200 μM, 24 h, crystal violet.

As for `CC1=C(Br)/C(=C/Br)OC1=O` [BF8 48, reference compound], the “inhibition of biofilm formation” value in assay [1] (setting [3]) came out at 56%. In assay [2], the “toxicity / growth inhibition of E. coli (in words)” value (“toxicity / growth inhibition” below) was “marked attenuation of E. coli growth”.

Regarding `CCCCOc1c(NC2CCCC2)c(=O)c1=O` [butoxy-SCPA 46], the “inhibition of biofilm formation” value in assay [1] (setting [3]) is on record as 42%. Besides, the “toxicity / growth inhibition” value in assay [2] was “no inhibition of E. coli growth up to 300 μM”.

On to `C=Cc1c(NC2CCOC2=O)c(=O)c1=O` (stereo not drawn) [vinyl-SHL 3], for which, in assay [1] (setting [3]), the “biofilm inhibition (in words)” value is reported as “greatest inhibition of biofilm”. The “biofilm inhibition values used in the ratio 26/57×100” value in assay [1] (E. coli RP437, unit not given) came to 57. The “E. coli growth relative to untreated sample” value in assay [2] (200 μM, at 4 h, OD600) came out at 77%. Moreover, the “toxicity / growth inhibition” value is on record as “less toxicity compared to BF8 48” in assay [2] and “after 8 h, E. coli RP437 growth reverts back normally” in assay [2] (listed as Vinyl-SHL 3).
